Measured values: PMC9656727, “Biodereplication of Antiplasmodial Extracts: Application of the Amazonian Medicinal Plant Piper coruscans Kunth” (Molecules, 2022)
Like-named read-outs stand apart in the source and are kept apart here.

Experiments:
[1] = test system: 3D7 Plasmodium falciparum strain; conditions: artemisinin reference value; read-out: 3D7 Sensitive Strain IC50; cited from earlier work
[2] = Heme-binding assay by mass spectrometry with collision-induced dissociation of adducts (DV50); conditions: energy dissociating 50% of the heme-Fe(III) adduct, NA = no adduct
Experimental: Hemin (iron-containing porphyrin with chlorine counterion) and the crude ethanolic extract were dissolved in DMSO at 5 mM and 10 mg/mL, respectively. Pure compounds were dissolved in DMSO at the concentration of 10 mM, except for Tween 20, which was dissolved in water at 10 µM. Citric-buffer-saturated octanol (CBSO) was prepared by mixing 5 mL of citric acid, 50 mM and pH 5.2, and 15 mL of N-octanol (anhydrous, ≥99%) and letting it settle at 23 °C for 30 min. The upper phase of the CBSO biphasic system was used. Autosampler 1260 infinity G1367E 1260 Hip ALS (Agilent Technologies, Santa Clara, CA, USA) was used to perform the automatic mixing of aliquots in 384-well plates. The incubation mixture was as follows: Compound 5 µL + heme 5 µL + Tween 5 µL + organic phase of CBSO 85 µL. Samples were injected in infusion mode (direct injection) in a 6530 Accurate-Mass QToF LC–MS instrument (Agilent Technologies) with the following settings: Positive ESI mode and 2 GHz acquisition rate. […] In positive-ion mode, purine ion C5H4N4 [M + H]^+ (m/z 121.050873) and the hexakis (1H,1H,3H-tetrafluoropropoxy)-phosphazene ion C18H18F24N3O6P3 [M+H]^+ (m/z 922.009798) were used as internal lock masses. Full scans were acquired at a resolution of ca 11 000 (at m/z 922).
To obtain heme-Fe(II) from hemin (heme-Fe(III)), glutathione (50 mM in water) was mixed with hemin (5 mM in DMSO) in a ratio of 1:1 and left to incubate for 40 min. This solution was used as the heme solution, as described above.
Dissociation in the collision chamber was caused by increasing collision energies from 0 to 56 eV. The MS–MS targeted mode, an isolation width of m/z 1.3, and the flow injection analysis mode (FIA) were applied. MS–MS parameters were the same as described above. The results were plotted, and a sigmoidal regression curve allowed us to calculate the energy necessary to dissociate 50% of adducts (DV50) using GraphPrism software version 5.00 (San Diego, CA, USA) or a Python script.
Ethanolic extract and hemin (heme-Fe(III)) were mixed and injected using infusion mode for the MS–MS experiment. Three collision energies were used: 30, 50, and 70 eV. The ten most intense ions (top 10) per cycle were selected. MS–MS acquisition parameters were as follows: m/z range of 100–1700, default charge of 1, a minimum intensity of 5000 counts, 3 spectra/s, and isolation width of 1.3 m/z. A list of compounds was generated by the “find by auto MSMS” algorithm of MassHunter software (Qualitative Analysis B.07.00, Agilent Technologies). The “extract average MS–MS spectrum” mode was used to summarize and average the results of the 3 collision energies. Exportation of generated spectra was performed in MGF format using the option “entire data file”. The information generated was uploaded onto the online platform GNPS (global natural product social network). Parameters used for the algorithm were as follows: Precursor ion mass tolerance = 1; fragment ion mass tolerance = 0.3; min pairs cos = 0.7; minimum matched fragment ions = 3; and minimum cluster size = 1. From the data, a network was calculated measuring correlations and was plotted using Cytoscape 3.5.1. […] An alkaloid extract from Cinchona pubescens Vahl (Rubiaceae) and eight antiplasmodial drugs (chloroquine, quinine, amodiaquine, ketoconazole, miconazole, mefloquine, praziquantel, and sulfadoxine) were used as examples of the visualization of adduct fragments by MN. The methodology and conditions were the same as described above.

[3] = test system: 3D7 Plasmodium falciparum strain; assay: In vitro antiplasmodial activity on Plasmodium falciparum (SYBR Green I); type: cell-based; conditions: for IC50: chloroquine-sensitive 3D7 strain, 44 h incubation
Experimental: The strain was maintained in O+ human erythrocytes in an albumin-supplemented RPMI medium under continuous culture using the candle-jar method. […] After 44 h of incubation at 37 °C, the plates were subjected to 3 freeze-thaw cycles to achieve complete hemolysis. The parasite lysis suspension was diluted 1:5 in lysis buffer. In vitro susceptibility is expressed as the concentration inhibiting 50% of the parasite's growth (IC50). Parasite growth was determined using SYBR® Green I, a dye with strong fluorescence enhancement upon contact with DNA. Incorporation of the SYBR® Green I (Fisher Scientific, Illkirch-Graffenstaden, France) in parasite DNA was measured using the Master […]® (Eppendorf, Montesson, France) according to the following program to increase the SYBR® Green I incorporation: 90 °C (1 min) and a decrease to 10 °C over 5 min followed by fluorescence reading. Untreated infected and uninfected erythrocytes were used as controls and chloroquine diphosphate (Sigma, Lezennes, France) was used as a reference drug. IC50 was calculated by IC-estimator online software (www.antimalarial-icestimator.net, accessed on 18 January 2018).

[4] = test system: AB943 primary human dermal fibroblast cell line; assay: Cytotoxicity, Alamar Blue; type: cell-based; conditions: for Selectivity Index CC50/IC50: CC50 on AB943 fibroblasts / IC50 on 3D7
Experimental: (§1) Cells were seeded in 96-well plates (20,000 cells/mL) and incubated for 24 h, then treated with the drug for 72 h. […] Fluorescent viable cells were monitored after 5 h of incubation at 37 °C at a wavelength of 530 nm for excitation and 590 nm for emission in an FL600 luminescence spectrometer (Biotek, Colmar, France).

[5] = Cytotoxicity, Alamar Blue; type: cell-based, human; conditions: human, 72 h treatment
Experimental: as §1

Trypanosoma brucei = test system: Trypanosoma brucei; set-up: method as in PMID 28000515; conditions: read-out: IC50 against Trypanosoma brucei; cited from earlier work
[6] = AB943 primary human dermal fibroblast cells

Compound | DV50 [2] | IC50 ([3]; Plasmodium falciparum) | Selectivity Index CC50/IC50 [4] | CC50 at 72 h [5, 6] | also measured
C[C@@H]1CC[C@H]2[C@@H](C)C(=O)O[C@@H]3O[C@@]4(C)CC[C@@H]1[C@]32OO4 [ART, Artemisinin] |  |  |  |  | IC50 [1]: 0.004 µM
CCN(CC)CCCC(C)Nc1ccnc2cc(Cl)ccc12 (stereo not drawn) [CQ, Chloroquine, reference compound] | 14.27 eV |  |  |  | DV50 ([2]; listed as chloroquine): above 14 eV
COc1cc(OC)c(C(=O)/C=C/c2ccccc2)c(O)c1C [Compound 1, aurentiacin] | 5.15 eV | 2.25 µM | 30.4 | 68.5 µM | 
COc1cc(O)c(C)c(O)c1C(=O)/C=C/c1ccccc1 [Compound 2, 2′, 4′-dihydroxy-6′-methoxy-3′-methylchalcone] | 5.93 eV | 51 µM | 1.9 | > 100 µM | 
COc1cc(O)cc(O)c1C(=O)/C=C/c1ccccc1 [Compound 3, cardamomin] | 5.60 eV | 5.5 µM | 10.5 |  | CC50 at 72 h ([5]; read-out: AB943 Primary Human Fibroblast CC50): 58 µM; IC50 (Trypanosoma brucei): 1.8 µM
COc1cc2c(c(O)c1C)C(=O)CC(c1ccccc1)O2 (stereo not drawn) [Compound 4, strobopinin 7-methyl ether] |  | 60 µM |  | > 100 µM | 
COc1c(C)c(O)c2c(c1C)OC(c1ccccc1)CC2=O (stereo not drawn) [Compound 5, 5-hydroxy-7-methoxy-6,8-dimethyl flavanone] |  | 33.2 µM | <1 | 23 µM | 
Cc1c(O)c(C)c2c(c1O)C(=O)CC(c1ccccc1)O2 (stereo not drawn) [Compound 6, desmethoxymatteucinol] |  | 71 µM | 1.4 | > 100 µM | 
COc1cc(OC)c2c(c1C)OC(c1ccccc1)CC2=O (stereo not drawn) [Compound 9, dimethyl cryptostrobin] | 7.68 eV | 85 µM | 1.2 | > 100 µM | 
COC(=O)C1=CC(O)C(O)(C(=O)/C=C/c2ccccc2)C1 (stereo not drawn) [Compound 10] |  | > 100 µM | 1 | > 100 µM | 
COc1ccc(CCNC(=O)c2ccccc2)cc1 [Compound 11, N-Benzoyltyrarnine methyl ether] | 9.45 eV | > 100 µM | 1 | > 100 µM | antiplasmodial activity (in words) ([3]; 3D7 strain): no antiplasmodial activity
O=C1C=Cc2ccccc21 [Compound 12, 1H-inden-1-one] |  | > 100 µM | 1 | > 100 µM | 
alpinetin [Compound 7] | 8.40 eV |  |  |  | IC50 [3]: 72 µM; CC50 [4]: > 100 µM
pinocembrin [Compound 8] | 8.68 eV |  |  |  | IC50 [3]: 78 µM; CC50 ([4]; 72 h treatment, read-out: AB943 Primary Human Fibroblast CC50): > 100 µM
